Measured values: patent publication US9422277B2, “Tricyclic substituted thiadiazine dioxide compounds as BACE inhibitors, compositions and their use” (Merck Sharp & Dohme Corp., priority 2012, dated 2016)

Legend:
[1] = target: purified human autoBACE-2 (Homo sapiens (Human), UniProt Q9Y5Z0); assay: BACE-2 Assay (BACE-HTRF assay); assay type: biochemical; conditions: Ki calculated from IC50 using the Cheng-Prusoff equation; read-out: BACE2 Ki
Procedure: Inhibitor IC50s at purified human autoBACE-2 are determined in a time-resolved endpoint proteolysis assay that measures hydrolysis of the QSY7-[…]-Eu-amide FRET peptide substrate (BACE-HTRF assay). BACE-mediated hydrolysis of this peptide results in an increase in relative fluorescence (RFU) at 620 nm after excitation with 320 nm light Inhibitor compounds, prepared at 3× the desired final concentration in 1×BACE assay buffer (20 mM sodium acetate pH 5.0, 10% glycerol, 0.1% Brij-35) supplemented with 7.5% DMSO are pre-incubated with an equal volume of autoBACE-2 enzyme diluted in 1×BACE assay buffer (final enzyme concentration 1 nM) in black 384-well NUNC plates for 30 minutes at 30° C. […] DMSO is present at 5% final concentration in the assay. Following laser excitation of sample wells at 320 nm, the fluorescence signal at 620 nm is collected for 400 ms following a 50 μs delay on a RUBYstar HTRF plate reader (BMG Labtechnologies). Raw RFU data is normalized to maximum (1.0 nM BACE/DMSO) and minimum (no enzyme/DMSO) RFU values. IC50s are determined by nonlinear regression analysis (sigmoidal dose response, variable slope) of percent inhibition data with minimum and maximum values set to 0 and 100 percent respectively. Similar IC50s are obtained when using raw RFU data. The Ki values are calculated from the IC50 using the Cheng-Prusoff equation.

human P-glycoprotein = human P-glycoprotein (Homo sapiens (Human), UniProt P08183); assay: Efflux by human P-glycoprotein (Pgp Mdr1 efflux ratio); assay type: in vitro ADME
[2] = target: soluble human BACE1 catalytic domain (Homo sapiens (Human), UniProt P56817); assay: BACE1 HTRF FRET Assay; assay type: biochemical; conditions: Ki calculated from IC50 using the Cheng-Prusoff equation
Text: A homogeneous time-resolved FRET assay can be used to determine IC50 values for inhibitors of the soluble human BACE1 catalytic domain. This assay monitors the increase of 620 nm fluorescence that resulted from BACE1 cleavage of an APPswedish APP^swe mutant peptide FRET substrate (QSY7-[…]-Europium-amide). This substrate contains an N-terminal QSY7 moiety that serves as a quencher of the C-terminal Europium fluorophore (620 nm Em). In the absence of enzyme activity, 620 nm fluorescence is low in the assay and increased linearly over 3 hours in the presence of uninhibited BACE1 enzyme Inhibition of BACE1 cleavage of the QSY7-APP^swe-Eu substrate by inhibitors is manifested as a suppression of 620 nm fluorescence.
Reactions are initiated by addition of 10 μl of 600 nM QSY7-APP^swe-Eu substrate (200 nM final) to give a final reaction volume of 30 μl in a 384 well Nunc HTRF plate. The reactions are incubated at 30° C. for 1.5 hours. The 620 nm fluorescence is then read on a Rubystar HTRF plate reader (BMG Labtechnologies) using a 50 millisecond delay followed by a 400 millisecond acquisition time window Inhibitor IC50 values are derived from non-linear regression analysis of concentration response curves.

purified human autoBACE-2, sequence (Q9Y5Z0 63-473 limits assumed): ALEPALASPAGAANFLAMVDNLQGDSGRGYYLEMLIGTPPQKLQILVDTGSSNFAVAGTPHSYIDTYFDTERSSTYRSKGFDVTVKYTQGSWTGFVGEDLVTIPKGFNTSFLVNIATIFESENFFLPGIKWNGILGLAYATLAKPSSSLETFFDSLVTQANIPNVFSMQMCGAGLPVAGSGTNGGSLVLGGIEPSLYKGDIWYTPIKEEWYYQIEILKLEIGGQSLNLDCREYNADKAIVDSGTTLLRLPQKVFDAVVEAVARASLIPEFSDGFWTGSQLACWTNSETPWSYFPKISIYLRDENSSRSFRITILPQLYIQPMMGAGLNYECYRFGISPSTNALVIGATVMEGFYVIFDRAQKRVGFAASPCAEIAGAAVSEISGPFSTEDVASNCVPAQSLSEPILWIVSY
soluble human BACE1 catalytic domain, sequence (P56817 75-416): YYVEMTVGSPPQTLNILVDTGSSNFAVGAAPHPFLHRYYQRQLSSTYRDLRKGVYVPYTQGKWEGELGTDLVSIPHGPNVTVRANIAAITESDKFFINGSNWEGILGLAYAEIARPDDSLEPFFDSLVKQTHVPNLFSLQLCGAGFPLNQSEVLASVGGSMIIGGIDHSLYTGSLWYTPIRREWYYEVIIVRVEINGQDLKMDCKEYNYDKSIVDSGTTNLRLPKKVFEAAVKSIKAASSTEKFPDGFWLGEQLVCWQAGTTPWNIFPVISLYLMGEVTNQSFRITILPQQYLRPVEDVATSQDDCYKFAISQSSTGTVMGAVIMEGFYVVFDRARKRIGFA
human P-glycoprotein, sequence (P08183 whole entry, the tested form may be a part): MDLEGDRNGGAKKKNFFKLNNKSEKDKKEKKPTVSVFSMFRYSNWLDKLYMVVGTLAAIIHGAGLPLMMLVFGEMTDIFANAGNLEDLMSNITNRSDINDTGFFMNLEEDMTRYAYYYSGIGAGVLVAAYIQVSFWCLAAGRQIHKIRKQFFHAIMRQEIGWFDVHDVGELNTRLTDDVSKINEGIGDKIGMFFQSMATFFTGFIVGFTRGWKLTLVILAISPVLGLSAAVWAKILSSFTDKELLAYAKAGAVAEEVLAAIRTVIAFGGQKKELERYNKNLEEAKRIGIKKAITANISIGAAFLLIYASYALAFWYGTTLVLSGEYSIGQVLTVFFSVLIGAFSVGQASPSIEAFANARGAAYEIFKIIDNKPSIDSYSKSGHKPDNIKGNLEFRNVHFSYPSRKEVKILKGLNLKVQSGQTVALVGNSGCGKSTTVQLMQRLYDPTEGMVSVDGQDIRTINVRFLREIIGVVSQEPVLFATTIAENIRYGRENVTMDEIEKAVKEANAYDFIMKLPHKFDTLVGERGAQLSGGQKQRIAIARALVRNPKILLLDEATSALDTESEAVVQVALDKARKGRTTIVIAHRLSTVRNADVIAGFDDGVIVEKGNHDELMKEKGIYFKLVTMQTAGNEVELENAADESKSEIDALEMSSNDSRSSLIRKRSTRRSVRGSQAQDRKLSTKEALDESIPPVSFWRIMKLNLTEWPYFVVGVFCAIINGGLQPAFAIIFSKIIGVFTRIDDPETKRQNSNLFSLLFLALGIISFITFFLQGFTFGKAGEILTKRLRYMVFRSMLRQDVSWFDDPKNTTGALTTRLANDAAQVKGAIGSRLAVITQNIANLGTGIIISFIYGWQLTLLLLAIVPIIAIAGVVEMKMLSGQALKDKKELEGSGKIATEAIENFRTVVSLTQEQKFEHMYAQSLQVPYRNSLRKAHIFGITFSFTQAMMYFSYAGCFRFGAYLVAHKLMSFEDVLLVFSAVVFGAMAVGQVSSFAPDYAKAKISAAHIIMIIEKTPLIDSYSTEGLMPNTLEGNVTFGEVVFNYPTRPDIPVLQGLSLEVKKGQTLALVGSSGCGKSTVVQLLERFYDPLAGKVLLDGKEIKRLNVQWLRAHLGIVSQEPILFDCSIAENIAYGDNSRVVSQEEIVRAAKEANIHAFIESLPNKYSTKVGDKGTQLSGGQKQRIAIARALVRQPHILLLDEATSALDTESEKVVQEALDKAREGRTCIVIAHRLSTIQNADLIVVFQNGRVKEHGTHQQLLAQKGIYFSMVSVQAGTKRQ

SMILES | Ki [1] | Pgp Mdr1 ER (human P-glycoprotein) | Ki [2]
CN1C(=N)N[C@](C)(c2sc(-c3nnc(-c4ccc(Cl)cc4)o3)cc2Cl)CS1(=O)=O [Example 16] | 13.8 nM | 1.1 | 28.8 nM
CN1C(=N)N[C@](C)(c2sc(-c3nnc(-c4ccc(Cl)cc4)o3)cc2F)CS1(=O)=O [Example 19] | 13.6 nM | 1.0 | 31.9 nM
CN1C(=N)N[C@](C)(c2sc(-c3nnc(-c4ccccc4)o3)cc2Cl)CS1(=O)=O [Example 20] | 7.76 nM | 1.3 | 106 nM
CN1C(=N)N[C@](C)(c2cc(-c3nnc(-c4ccon4)o3)ccc2F)CS1(=O)=O [Example 55] | 737 nM |  | 4940 nM
CC(C)c1ccc(-c2nnc(-c3cc(Cl)c([C@]4(C)CS(=O)(=O)N(C)C(=N)N4)s3)o2)cc1 [Example 56] | 889 nM |  | 359 nM
CN1C(=N)N[C@](C)(c2sc(-c3nnc(-c4ccc5[nH]cnc5c4)o3)cc2Cl)CS1(=O)=O [Example 58] | 1300 nM |  | 964 nM
CN1C(=N)N[C@](C)(c2sc(-c3nnc(-c4ccc(F)c(F)c4)o3)cc2Cl)CS1(=O)=O [Example 59] | 81.3 nM |  | 118 nM
CC(C)Oc1ccc(-c2nnc(-c3cc(Cl)c([C@]4(C)CS(=O)(=O)N(C)C(=N)N4)s3)o2)cc1 [Example 60] | 533 nM |  | 205 nM
CCCCOc1ccc(-c2nnc(-c3cc(Cl)c([C@]4(C)CS(=O)(=O)N(C)C(=N)N4)s3)o2)cc1 [Example 61] | 258 nM |  | 100 nM
CCCOc1ccc(-c2nnc(-c3cc(Cl)c([C@]4(C)CS(=O)(=O)N(C)C(=N)N4)s3)o2)cc1 [Example 62] | 313 nM |  | 84.2 nM
CCCCCOc1ccc(-c2nnc(-c3cc(Cl)c([C@]4(C)CS(=O)(=O)N(C)C(=N)N4)s3)o2)cc1 [Example 64] | 356 nM |  | 160 nM
CN1C(=N)N[C@](C)(c2sc(-c3nnc(-c4ccc(C(F)(F)F)c(F)c4)o3)cc2Cl)CS1(=O)=O [Example 65] | 366 nM |  | 156 nM
CN1C(=N)N[C@](C)(c2sc(-c3nnc(-c4ccc(C5(C#N)COC5)cc4)o3)cc2Cl)CS1(=O)=O [Example 66] | 1070 nM |  | 1360 nM
CN1C(=N)N[C@](C)(c2sc(-c3nnc(-c4ccc(C5CCC(F)(F)C5)cc4)o3)cc2Cl)CS1(=O)=O (stereo partly drawn) [Example 67] | 1870 nM |  | 1110 nM
CN1C(=N)N[C@](C)(c2sc(-c3nnc(-c4ccc(N5CCCCC5)cc4)o3)cc2Cl)CS1(=O)=O [Example 68] | 2990 nM |  | 5360 nM
CN1C(=N)N[C@](C)(c2sc(-c3nnc(-c4ccc(N5CCCC5=O)cc4)o3)cc2Cl)CS1(=O)=O [Example 69] | 1070 nM |  | 1030 nM
CN1C(=N)N[C@](C)(c2sc(-c3nnc(-c4ccc(-n5cnnn5)cc4)o3)cc2Cl)CS1(=O)=O [Example 70] | 1350 nM |  | 180 nM
CN1C(=N)N[C@](C)(c2sc(-c3nnc(-c4ccc(-n5cccn5)cc4)o3)cc2Cl)CS1(=O)=O [Example 71] | 181 nM |  | 155 nM
Cc1nc2cc(-c3nnc(-c4cc(Cl)c([C@]5(C)CS(=O)(=O)N(C)C(=N)N5)s4)o3)ccc2s1 [Example 72] | 1150 nM |  | 422 nM
CN1C(=N)N[C@](C)(c2sc(-c3nnc(-c4ccc5c(c4)C(=O)CC5)o3)cc2Cl)CS1(=O)=O [Example 74] | 1990 nM |  | 887 nM
CN1C(=N)N[C@](C)(c2sc(-c3nnc(-c4ccc(C(F)(F)F)cn4)o3)cc2Cl)CS1(=O)=O [Example 75] | 303 nM |  | 164 nM
CN1C(=N)N[C@](C)(c2sc(-c3nnc(-c4ccc(-c5ccon5)cc4)o3)cc2Cl)CS1(=O)=O [Example 76] | 243 nM |  | 108 nM
CN1C(=N)N[C@](C)(c2sc(-c3nnc(-c4ccc(-c5noc(C(F)(F)F)n5)cc4)o3)cc2Cl)CS1(=O)=O [Example 77] | 1280 nM |  | 258 nM
CN1C(=N)N[C@](C)(c2sc3c(-c4coc(-c5ccc(F)cc5)n4)cccc3c2F)CS1(=O)=O [Example 82] | 2940 nM |  | 4890 nM

Continued by falling Ki [1], values first:

Ki [1] | Pgp Mdr1 ER (human P-glycoprotein) | Ki [2] | SMILES
3320 nM |  | 3180 nM | CN1C(=N)N[C@](C)(c2sc3c(-c4cnc(-c5ccc(F)cc5)o4)cccc3c2F)CS1(=O)=O [Example 83]
671 nM |  | 138 nM | COC(=O)Cc1ccc(-c2nnc(-c3cc(Cl)c([C@]4(C)CS(=O)(=O)N(C)C(=N)N4)s3)o2)cc1 [Example 80]
527 nM |  | 227 nM | CN1C(=N)N[C@](C)(c2sc(-c3nnc(-c4ccc(OCc5ccccc5)cc4)o3)cc2Cl)CS1(=O)=O [Example 63]
337 nM |  | 1460 nM | CN1C(=N)N[C@](C)(c2sc3c(-c4cnn(-c5ccccc5)c4)cccc3c2F)CS1(=O)=O [Example 81]
336 nM |  | 171 nM | CN1C(=N)N[C@](C)(c2sc(-c3nnc(-c4ccc5scnc5c4)o3)cc2Cl)CS1(=O)=O [Example 73]
155 nM | 0.7 | 58.9 nM | CN1C(=N)N[C@](C)(c2sc(-c3nnc(-c4ccc(C(F)(F)F)cc4)o3)cc2Cl)CS1(=O)=O [Example 18]
143 nM |  | 56 nM | CN1C(=N)N[C@](C)(c2sc(-c3nnc(-c4ccc(OC(F)(F)F)cc4)o3)cc2Cl)CS1(=O)=O [Example 78]
132 nM |  | 51.6 nM | CN1C(=N)N[C@](C)(c2sc(-c3nnc(-c4ccc(OC(F)F)cc4)o3)cc2Cl)CS1(=O)=O [Example 79]
34.6 nM | 1.0 | 38.6 nM | COc1ccc(-c2nnc(-c3cc(Cl)c([C@]4(C)CS(=O)(=O)N(C)C(=N)N4)s3)o2)cc1 [Example 17]
27.9 nM |  | 265 nM | CN1C(=N)N[C@](C)(c2sc(-c3cnn(-c4ccccc4)c3)cc2Cl)CS1(=O)=O [Example 85]
16.8 nM |  | 50.7 nM | CN1C(=N)N[C@](C)(c2sc(-c3nnc(-c4ccc(Cl)cc4F)o3)cc2Cl)CS1(=O)=O [Example 57]
13 nM | 1.4 | 65.5 nM | CN1C(=N)N[C@](C)(c2sc(-c3nnc(-c4ccc(F)cc4)o3)cc2Cl)CS1(=O)=O [Example 22]
